The test system of the test is Male C57 mice. Kind of test: Forced Swim Test. Format: in vivo. Particulars: 10 mg/kg, intraperitoneally, 0.5h after administration; compared to the solvent control group; Figure 1. The protocol: Drugs to be tested: The compounds of the present invention and the positive control compound (vortioxetine) were mixed with 5% DMSO, then mixed with 5% Solutol® HS 15, and then 90% physiological saline was added to prepare a solution of appropriate concentration. The solution was prepared immediately before use.
Animal: Male C57 mice, approximately 22g. Animals were randomly divided into a blank control group and each test drug group, with 8 animals in each group. Mice in each group were intraperitoneally injected with either the solvent or the test drug.
Experimental Procedure: Forced swimming test was performed on the mice 0.5h after drug administration. The water level in the forced swimming device was 45cm, and the water temperature was 25°C. The mice were placed in the experimental room for 1h to acclimatize before the experiment. Mice were placed in the device at the start of the experiment for 6 minutes, and the entire process was recorded by a camera. Data analysis only considered the immobility time of the mice during the last 4 minutes.

Regarding `Cc1ccc(Sc2ccccc2N2CCNCC2)c(C)c1` [vortioxetine], the “immobility time of mice” value was “significantly reduced the immobility time”.

For the origin of these results see patent publication EP4786467A1, “QUINOLINONE COMPOUND, PREPARATION METHOD THEREFOR AND USE THEREOF” (Vigonvita Life Sciences Co., Ltd., priority 2023, dated 2025).
